Results taken from ChEMBL document CHEMBL1201862, “PubChem BioAssay data set” (2004).
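Five compound concentrations were applied to cells in 96-well plates for 48 hours; endpoints were derived by simple linear interpolation of the resulting dose-response curve. GI50 is the concentration that inhibits growth by half.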 Active and inactive are the calls of the source. Rule as the data show it: active = GI50 up to about 1.1 µM and inactive = higher.

How the values were obtained:
Test in all cases: NCI tumour cell line growth inhibition, 48 h
A549 = test system: A549
CCRF-CEM = test system: CCRF-CEM
DU-145 = test system: DU-145
HCC 2998 = test system: HCC 2998
HT-29 = test system: HT-29
Hs-578T = test system: Hs-578T
IGROV-1 = test system: IGROV-1
K562 = test system: K562
MCF7 = test system: MCF7
Malme-3M = test system: Malme-3M
NCI-H23 = test system: NCI-H23
NCI-H460 = test system: NCI-H460
NCI/ADR-RES = test system: NCI/ADR-RES
OVCAR-3 = test system: OVCAR-3
OVCAR-5 = test system: OVCAR-5
SNB-75 = test system: SNB-75
TK-10 = test system: TK-10
UACC-62 = test system: UACC-62
UO-31 = test system: UO-31
DMS-114 = test system: DMS-114

Measured: GI50

CC(C)c1ccc2nc3ccc(C(=O)NCCN4CCN(c5ccccc5)CC4)cn3c(=O)c2c1
inactive: A549 > 100 µM | CCRF-CEM 2.24 µM | DU-145 > 100 µM | HCC 2998 11.1 µM | HT-29 4.06 µM | Hs-578T 4.93 µM | IGROV-1 > 100 µM | K562 2.45 µM | MCF7 10 µM | Malme-3M 1.85 µM | NCI-H23 7.73 µM | NCI-H460 4.3 µM | NCI/ADR-RES 3.57 µM | OVCAR-3 > 100 µM | OVCAR-5 > 100 µM | SNB-75 1.89 µM | TK-10 3.56 µM | UACC-62 3.87 µM | UO-31 4.9 µM

CCOC(=O)C1=C(C)N(Cc2ccccc2)C(=O)C1CC#N (stereo unspecified)
inactive: A549 > 100 µM | CCRF-CEM 31.6 µM | DMS-114 45.1 µM | HCC 2998 > 100 µM | HT-29 > 100 µM | IGROV-1 > 100 µM | K562 70.3 µM | NCI-H23 > 100 µM | NCI-H460 > 100 µM | OVCAR-3 > 100 µM | SNB-75 55.2 µM | UACC-62 80 µM | UO-31 > 100 µM

C/C(=C\c1ccccc1)C(=O)c1c(C)cc(C)cc1C
inactive: A549 > 100 µM | CCRF-CEM > 100 µM | DMS-114 > 100 µM | HT-29 > 100 µM | IGROV-1 > 100 µM | K562 > 100 µM | Malme-3M > 100 µM | NCI-H23 > 100 µM | NCI-H460 > 100 µM | OVCAR-3 > 100 µM | SNB-75 > 100 µM | TK-10 > 100 µM | UACC-62 > 100 µM | UO-31 > 100 µM

COc1ccc2oc(=O)c3c(c2c1C)OC(C)(C)C=C3
inactive: A549 > 100 µM | CCRF-CEM > 100 µM | DU-145 > 100 µM | HCC 2998 > 100 µM | HT-29 > 100 µM | Hs-578T > 100 µM | IGROV-1 > 100 µM | K562 > 100 µM | MCF7 > 100 µM | Malme-3M > 100 µM | NCI-H23 > 100 µM | NCI-H460 > 100 µM | NCI/ADR-RES > 100 µM | OVCAR-3 > 100 µM | OVCAR-5 > 100 µM | SNB-75 > 100 µM | TK-10 > 100 µM | UACC-62 > 100 µM | UO-31 > 100 µM

COc1cc2c(NCCCCCCO[N+](=O)[O-])ncnc2c(OC)c1OC
active: HCC 2998 0.399 µM
inactive: A549 28.7 µM | CCRF-CEM 19.8 µM | DU-145 24.5 µM | HT-29 36.1 µM | Hs-578T 29.2 µM | IGROV-1 23.1 µM | K562 29.2 µM | MCF7 17.6 µM | Malme-3M 13.1 µM | NCI-H23 19.1 µM | NCI-H460 22.3 µM | NCI/ADR-RES 21.7 µM | OVCAR-3 23.1 µM | OVCAR-5 30.2 µM | SNB-75 > 69.5 µM | TK-10 20.9 µM | UACC-62 18.2 µM | UO-31 7.93 µM

O=[N+]([O-])c1ccc(-c2cn(-c3ccc(Cl)cc3)cn2)cc1
inactive: A549 27.4 µM | CCRF-CEM > 100 µM | DU-145 > 100 µM | HCC 2998 > 100 µM | HT-29 > 100 µM | Hs-578T 41.6 µM | IGROV-1 41.6 µM | K562 > 100 µM | MCF7 71.6 µM | Malme-3M > 100 µM | NCI-H23 20.4 µM | NCI-H460 18.5 µM | NCI/ADR-RES 36.6 µM | OVCAR-3 19.1 µM | OVCAR-5 > 100 µM | SNB-75 8.57 µM | TK-10 40.3 µM | UACC-62 92 µM | UO-31 45 µM

CC(=O)N(C(C)=O)c1c(N)n(C)c(=O)[nH]c1=O
inactive: A549 > 100 µM | CCRF-CEM > 100 µM | DMS-114 > 100 µM | HCC 2998 > 100 µM | HT-29 > 100 µM | IGROV-1 > 100 µM | K562 > 100 µM | Malme-3M > 100 µM | NCI-H23 > 100 µM | NCI-H460 > 100 µM | OVCAR-3 > 100 µM | OVCAR-5 > 100 µM | UACC-62 > 100 µM | UO-31 > 100 µM

COc1cc(/C=C2/SC(c3ccccc3)N(c3ccc(Cl)cc3)C2=O)cc(OC)c1OC (stereo unspecified)
inactive: A549 > 41.5 µM | CCRF-CEM 2.84 µM | DU-145 > 100 µM | HCC 2998 > 100 µM | HT-29 > 100 µM | Hs-578T > 100 µM | IGROV-1 > 100 µM | MCF7 3.96 µM | Malme-3M 27 µM | NCI-H23 17.9 µM | NCI-H460 8 µM | NCI/ADR-RES 25.9 µM | OVCAR-3 80.5 µM | OVCAR-5 > 100 µM | SNB-75 95.3 µM | TK-10 > 100 µM | UACC-62 2.02 µM | UO-31 10.9 µM
active: K562 0.244 µM

CN1/C(=C\N=O)C(C)(C)N(O)C1(C)C
inactive: A549 > 100 µM | CCRF-CEM > 100 µM | DU-145 > 100 µM | HCC 2998 > 100 µM | HT-29 > 100 µM | Hs-578T > 100 µM | IGROV-1 > 100 µM | K562 > 100 µM | MCF7 > 100 µM | Malme-3M > 100 µM | NCI-H23 > 100 µM | NCI-H460 > 100 µM | NCI/ADR-RES > 100 µM | OVCAR-3 > 100 µM | OVCAR-5 > 100 µM | SNB-75 > 100 µM | TK-10 > 100 µM | UACC-62 > 100 µM | UO-31 > 100 µM

O=C1CC(Sc2nc3ccc(I)cc3c(=O)n2Cc2ccccc2)C(=O)NN1 (stereo unspecified)
inactive: A549 28.4 µM | CCRF-CEM 8.28 µM | DU-145 20 µM | HCC 2998 17.6 µM | HT-29 18.6 µM | Hs-578T 18.5 µM | IGROV-1 11.8 µM | K562 11.6 µM | MCF7 15 µM | Malme-3M 18.1 µM | NCI-H23 15.7 µM | NCI-H460 22.8 µM | NCI/ADR-RES 20.2 µM | OVCAR-3 16 µM | OVCAR-5 17.9 µM | SNB-75 11.7 µM | TK-10 16.8 µM | UACC-62 15.3 µM
active: UO-31 0.55 µM

Nc1ccc2c(=O)cc(-c3cccs3)[nH]c2n1
inactive: A549 3.65 µM | CCRF-CEM 2.21 µM | DU-145 5.9 µM | HCC 2998 2.19 µM | HT-29 3.66 µM | Hs-578T 3.66 µM | IGROV-1 2.64 µM | MCF7 1.12 µM | Malme-3M 8.18 µM | NCI-H23 2.89 µM | NCI-H460 2.77 µM | OVCAR-3 3.32 µM | OVCAR-5 15.3 µM | SNB-75 2.46 µM | TK-10 7.13 µM | UACC-62 2.3 µM | UO-31 3.54 µM
active: K562 0.847 µM | NCI/ADR-RES 1.06 µM

CCC(C)CC(C)CC(C)/C=C(\C)C1=C(C)CC(C)(O)O1 (stereo unspecified)
inactive: A549 85.7 µM | CCRF-CEM 52.6 µM | DMS-114 64.1 µM | HCC 2998 > 100 µM | HT-29 93.8 µM | IGROV-1 > 100 µM | K562 46.7 µM | NCI-H23 76.4 µM | NCI-H460 65.6 µM | SNB-75 > 100 µM | TK-10 > 100 µM | UACC-62 > 100 µM | UO-31 26.3 µM
